For orientation: Kd means the free concentration of one partner at which half of the binding sites on the other are occupied at equilibrium, for simple one-to-one binding.

Square brackets hold non-standard residues; d marks the D form. Peptide text beside a SMILES is read from it. pS = N[C@@H](COP(=O)(O)O)C(=O)O

What all share (assay): Fluorescence polarization (FP) direct binding assay
(In general: In fluorescence polarisation assays a small probe gives low polarisation when free and higher when bound to something large.)

The target in one test is T1, human 14-3-3 isoform β (Homo sapiens, UniProt P31946).
T1 construct: MBP (cleaved yes); made in house; host or cells: E. coli BL21DE3
T1 sequence (P31946 whole entry, canonical isoform): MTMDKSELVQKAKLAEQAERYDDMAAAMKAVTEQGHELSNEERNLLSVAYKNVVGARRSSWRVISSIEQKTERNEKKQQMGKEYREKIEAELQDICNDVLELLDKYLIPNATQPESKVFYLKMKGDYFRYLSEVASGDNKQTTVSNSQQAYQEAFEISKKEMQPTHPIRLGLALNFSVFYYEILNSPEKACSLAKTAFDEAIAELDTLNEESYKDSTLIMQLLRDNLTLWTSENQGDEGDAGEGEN
To be noted: fluorescein-labeled peptide 1 nM, 20 mM MOPS pH 7, 150 mM NaCl, 0.005% CHAPS, at least three independent measurements, read-out: Binding affinity (KD) toward 14-3-3 isoform β. In a few lines: (§1)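 Untagged human 14-3-3 isoforms (MBP removed) titrated from ≥5 μM down to picomolar against 1 nM fluorescein-labeled LRRK2-derived peptides, phosphorylated or not, in 20 mM MOPS pH 7, 150 mM NaCl, 0.005% CHAPS. KD from sigmoidal fit of FP (mPol) versus log protein concentration; duplicates, ≥2 independent replicates.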

The next test deals with T2, human 14-3-3γ (Homo sapiens, UniProt P61981).
T2 construct: MBP (cleaved yes); made in house; host or cells: E. coli BL21DE3
T2 sequence (P61981 1-247): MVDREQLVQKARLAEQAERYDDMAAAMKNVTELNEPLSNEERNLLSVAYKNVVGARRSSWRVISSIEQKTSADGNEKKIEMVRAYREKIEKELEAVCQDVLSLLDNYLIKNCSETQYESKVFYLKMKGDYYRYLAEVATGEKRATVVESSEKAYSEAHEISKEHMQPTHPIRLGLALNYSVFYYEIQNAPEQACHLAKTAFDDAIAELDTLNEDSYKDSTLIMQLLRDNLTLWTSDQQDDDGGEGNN
To be noted: fluorescein-labeled peptide 1 nM, 20 mM MOPS pH 7, 150 mM NaCl, 0.005% CHAPS, at least three independent measurements, read-out: Binding affinity (KD) toward 14-3-3 isoform γ. In a few lines:
as §1

In a further test the target is T3, human 14-3-3 isoform θ (Homo sapiens, UniProt P27348).
T3 construct: MBP (cleaved yes); made in house; host or cells: E. coli BL21DE3
T3 sequence (P27348 whole entry, canonical isoform): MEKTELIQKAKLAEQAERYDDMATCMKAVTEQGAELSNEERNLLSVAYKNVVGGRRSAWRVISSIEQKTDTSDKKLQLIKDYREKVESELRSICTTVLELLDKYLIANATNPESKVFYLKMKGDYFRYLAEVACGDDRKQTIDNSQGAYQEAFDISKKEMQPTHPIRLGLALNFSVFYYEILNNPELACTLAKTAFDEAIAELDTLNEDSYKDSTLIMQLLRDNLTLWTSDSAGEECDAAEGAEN
As to conditions: fluorescein-labeled peptide 1 nM, 20 mM MOPS pH 7, 150 mM NaCl, 0.005% CHAPS, at least three independent measurements, read-out: Binding affinity (KD) toward 14-3-3 isoform θ. Put shortly: as §1

The next test addresses T4, human 14-3-3 isoform σ (Homo sapiens, UniProt P31947).
T4 construct: MBP (cleaved yes); made in house; host or cells: E. coli BL21DE3
T4 sequence (P31947 1-248): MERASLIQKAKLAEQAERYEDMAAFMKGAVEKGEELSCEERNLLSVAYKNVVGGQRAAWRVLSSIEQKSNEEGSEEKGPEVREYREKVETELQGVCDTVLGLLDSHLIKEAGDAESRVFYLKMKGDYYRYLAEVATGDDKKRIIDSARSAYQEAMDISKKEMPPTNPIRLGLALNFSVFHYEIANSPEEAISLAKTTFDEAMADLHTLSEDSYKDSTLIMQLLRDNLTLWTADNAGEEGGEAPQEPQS
As to conditions: fluorescein-labeled peptide 1 nM, 20 mM MOPS pH 7, 150 mM NaCl, 0.005% CHAPS, at least three independent measurements, read-out: Binding affinity (KD) toward 14-3-3 isoform σ. In a few lines:
as §1

For another test, the target named is T5, human 14-3-3 isoform ϵ (Homo sapiens, UniProt P62258).
T5 construct: MBP (cleaved yes); made in house; host or cells: E. coli BL21DE3
T5 sequence (P62258 1-255): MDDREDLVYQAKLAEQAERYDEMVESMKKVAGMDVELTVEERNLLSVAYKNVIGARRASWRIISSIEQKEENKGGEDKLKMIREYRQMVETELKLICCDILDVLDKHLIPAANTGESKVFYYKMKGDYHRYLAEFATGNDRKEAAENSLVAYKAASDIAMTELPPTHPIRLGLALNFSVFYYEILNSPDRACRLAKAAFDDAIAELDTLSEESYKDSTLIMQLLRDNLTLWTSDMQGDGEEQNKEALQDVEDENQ
As to conditions: fluorescein-labeled peptide 1 nM, 20 mM MOPS pH 7, 150 mM NaCl, 0.005% CHAPS, bound given in μM, read-out: Binding affinity (KD) toward 14-3-3 isoform ϵ. Put shortly: as §1

The target in the next test is T6, human 14-3-3 isoform ζ (Homo sapiens, UniProt P63104).
T6 construct: MBP (cleaved yes); made in house; host or cells: E. coli BL21DE3
T6 sequence (P63104 whole entry, canonical isoform): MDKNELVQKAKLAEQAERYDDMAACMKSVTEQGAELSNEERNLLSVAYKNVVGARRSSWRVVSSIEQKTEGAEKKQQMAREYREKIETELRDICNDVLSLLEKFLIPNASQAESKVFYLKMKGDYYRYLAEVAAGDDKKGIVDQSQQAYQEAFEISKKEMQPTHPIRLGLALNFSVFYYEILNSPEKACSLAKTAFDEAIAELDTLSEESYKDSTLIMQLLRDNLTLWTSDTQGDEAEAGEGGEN
As to conditions: fluorescein-labeled peptide 1 nM, 20 mM MOPS pH 7, 150 mM NaCl, 0.005% CHAPS, at least three independent measurements, read-out: Binding affinity (KD) toward 14-3-3 isoform ζ. In a few lines: as §1

A further test deals with T7, human 14-3-3 isoform η (Homo sapiens, UniProt Q04917).
T7 construct: MBP (cleaved yes); made in house; host or cells: E. coli BL21DE3
T7 sequence (Q04917 whole entry, canonical isoform): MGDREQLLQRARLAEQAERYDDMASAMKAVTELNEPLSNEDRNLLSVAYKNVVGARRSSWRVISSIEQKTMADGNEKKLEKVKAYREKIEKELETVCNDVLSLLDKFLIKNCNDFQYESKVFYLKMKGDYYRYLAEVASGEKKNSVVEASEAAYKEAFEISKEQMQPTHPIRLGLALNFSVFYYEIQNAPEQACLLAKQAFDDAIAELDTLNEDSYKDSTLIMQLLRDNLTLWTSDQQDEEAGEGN
As to conditions: fluorescein-labeled peptide 1 nM, 20 mM MOPS pH 7, 150 mM NaCl, 0.005% CHAPS, at least three independent measurements, read-out: Binding affinity (KD) toward 14-3-3 isoform η. In a few lines:
as §1

For `CC[C@H](C)[C@H](NC(=O)[C@H](CC(N)=O)NC(=O)[C@H](Cc1ccccc1)NC(=O)[C@@H](N)CC(C)C)C(=O)N[C@@H](CCCCN)C(=O)N[C@@H](C)C(=O)N[C@@H](CCCNC(=N)N)C(=O)N[C@@H](C)C(=O)N[C@@H](CO)C(=O)N[C@@H](COP(=O)(O)O)C(=O)N[C@@H](CO)C(=O)N1CCC[C@H]1C(=O)N[C@H](C(=O)N[C@H](C(=O)N[C@@H](CC(C)C)C(=O)N[C@H](C(=O)NCC(=O)N[C@H](C(=O)O)[C@@H](C)O)C(C)C)[C@@H](C)CC)C(C)C` [pS1444] (H-LFNIKARAS[pS]SPVILVGT-OH), the dissociation constant Kd on human 14-3-3 isoform β was 183 ± 25 nM; on human 14-3-3γ, 106 ± 4 nM; on human 14-3-3 isoform θ, 195 ± 42 nM; at human 14-3-3 isoform σ, 802 ± 261 nM; on human 14-3-3 isoform ϵ it was > 1 µM; at human 14-3-3 isoform ζ it was 476 ± 165 nM. For the same compound, the dissociation constant (Kd) at human 14-3-3 isoform η came to 85 ± 10 nM.

The record behind these values is paper PMC7155755, “Binding of the Human 14-3-3 Isoforms to Distinct Sites in the Leucine-Rich Repeat Kinase 2” (Frontiers in Neuroscience, 2020).
